The target of one experiment is T1, CpCBM92A (Chitinophaga pinensis, UniProt A0A979GQH9).
T1 construct: gene Cpin_2580; single CBM92 domain (three WExF motifs incl. W481, W523, W565), borders only in supplement; pET21a, C-terminal His6, E. coli BL21 (DE3)
As to the kind of experiment: isothermal titration calorimetry. The following applies: 50 mM sodium phosphate pH 6.5; three equivalent binding sites (N fixed to 3). From the text:
isothermal titration calorimetry on CpCBM92A
A general note: In ITC the heat of successive injections is recorded.

The target in a further experiment is T2, CpCBM92B (Chitinophaga pinensis, UniProt A0A979GQH9).
T2 construct: gene Cpin_2580; single CBM92 domain (incl. Arg955, Asp959 of beta subdomain), locus and borders only in supplement; His6-tagged, E. coli BL21 (DE3)
T2 sequence (A0A979GQH9 entry or part of it): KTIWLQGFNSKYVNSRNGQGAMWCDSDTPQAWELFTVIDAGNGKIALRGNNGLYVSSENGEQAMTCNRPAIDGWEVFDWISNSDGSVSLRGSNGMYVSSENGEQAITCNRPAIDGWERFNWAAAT
As to the kind of experiment: X-ray crystallography of soaked crystal. The class given is binding. To be noted: sites in alpha, beta and gamma subdomains, saturating ligand soak.

T1 sequence (A0A979GQH9 entry or part of it): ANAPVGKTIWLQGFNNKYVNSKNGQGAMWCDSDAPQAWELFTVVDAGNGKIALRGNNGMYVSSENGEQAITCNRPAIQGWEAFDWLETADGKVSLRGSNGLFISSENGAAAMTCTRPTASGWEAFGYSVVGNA

On to `OC[C@H]1O[C@@H](O[C@H]2C(O)O[C@H](CO)[C@@H](O)[C@@H]2O)[C@H](O)[C@@H](O)[C@@H]1O` (stereo partly drawn) [S2, sophorose], for which the Kd on CpCBM92A was determined as 882 ± 107 µM. Further, at CpCBM92B, the “X-ray crystallography of soaked crystal” value is given as “Adding either G2 or S2 to the protein crystals led to binding”.
Consider `OC[C@H]1O[C@@H](OC[C@H]2OC(O)[C@H](O)[C@@H](O)[C@@H]2O)[C@H](O)[C@@H](O)[C@@H]1O` (stereo partly drawn) [G2, gentiobiose], for which the Kd on CpCBM92A is 202 ± 40 µM. The “X-ray crystallography of soaked crystal” value on CpCBM92B (non-reducing end sugar in cleft) was “Adding either G2 or S2 to the protein crystals led to binding”.
For the molecule `OC[C@H]1OC(O)[C@H](O)[C@@H](O)[C@@H]1O` (stereo partly drawn) [glucose], the Kd at CpCBM92A turned out to be 1840 ± 200 µM. Also, the “X-ray crystallography of soaked crystal” value at CpCBM92B is reported as “Soaking experiments of the CpCBM92B protein crystals with glucose, gentiobiose”.

One may read the Kd as the free concentration of one partner at which half of the binding sites on the other are occupied at equilibrium, for simple one-to-one binding.

Values taken from publication PMC11039641, “Structural and biochemical analysis of family 92 carbohydrate-binding modules uncovers multivalent binding to β-glucans” (Nature Communications, 2024).
